According to patent US12281122B1, “PI3K inhibitors” (Cogent Biosciences, Inc., priority 2023, dated 2025):

What was measured:
[1] = tested on: SKBR3 (PI3Kα-Wild Type) cell line; test: HTRF phospho-AKT(S473) cell assay in SKBR3 cells; assay type: cell-based, human; conditions: Homo sapiens, SK-BR-3; HTRF phospho-AKT(S473), SKBR3 (PI3Kα-Wild Type) cells, 2 hours compound incubation, PDGF-BB stimulated
Summary of the method: (§1)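 pAKT(S473) in lysates read by HTRF after a 2 h, 37 °C compound exposure (12-point 1:3 series, max 0.5% DMSO). SKBR3 (wild type, top 10 μM) received 70 ng/ml PDGF-BB during the final 15 min; T47D (H1047R, top 5 μM) was unstimulated. IC50 values derived from the dose-response.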

[2] = tested on: T47D (PI3Kα-H1047R) cell line; test: HTRF phospho-AKT(S473) cell assay in T47D cells; assay type: cell-based, human; conditions: Homo sapiens; HTRF phospho-AKT(S473), T47D (PI3Kα-H1047R) cells, 2 hours compound incubation
Summary of the method: as §1

IC50 [1] [µM] | IC50 [2] [µM] | SMILES
1 to 5 | < 0.25 | Cc1cc([C@@H](C)Nc2ccc(Cl)nc2C(=O)NS(C)(=O)=O)c2nc(N3CCC(c4ccn(C5COC5)n4)CC3)n(C)c(=O)c2c1 [Compound 447, (R)-6-chloro-3-((1-(3,6-dimethyl-2-(4-(1-(oxetan-3-yl)-1H-pyrazol-3-yl)piperidin-1-yl)-4-oxo-3,4-dihydroquinazolin-8-yl)ethyl)amino)-N-(methylsulfonyl) picolinamide]
1 to 5 | < 0.25 | Cc1cc([C@@H](C)Nc2ccc(Cl)nc2C(=O)NS(C)(=O)=O)c2nc(N3C[C@@H]4[C@H](C3)[C@H]4c3coc(C)n3)n(C)c(=O)c2c1 [Compound 448, 6-chloro-3-(((R)-1-(3,6-dimethyl-2-((1R,5S,6R)-6-(2-methyloxazol-4-yl)-3-azabicyclo[3.1.0]hexan-3-yl)-4-oxo-3,4-dihydroquinazolin-8-yl)ethyl)amino)-N-(methylsulfonyl) picolinamide]
≥ 5 | 0.25 to 0.5 | Cc1cc([C@@H](C)Nc2ccc(Cl)nc2C(=O)NS(C)(=O)=O)c2nc(N3C[C@@H]4[C@H](C3)[C@H]4c3ccc(C)nc3)n(C)c(=O)c2c1 [Compound 449, 6-chloro-3-(((R)-1-(3,6-dimethyl-2-((1R,5S,6S)-6-(6-methylpyridin-3-yl)-3-azabicyclo[3.1.0]hexan-3-yl)-4-oxo-3,4-dihydroquinazolin-8-yl)ethyl)amino)-N-(methylsulfonyl) picolinamide]
≥ 5 | < 0.25 | Cc1cc([C@@H](C)Nc2ccc(Cl)nc2C(=O)NS(C)(=O)=O)c2nc(N3CCN(c4nn(C)cc4F)CC3)n(C)c(=O)c2c1 [Compound 450, (R)-6-chloro-3-((1-(2-(4-(4-fluoro-1-methyl-1H-pyrazol-3-yl)piperazin-1-yl)-3,6-dimethyl-4-oxo-3,4-dihydroquinazolin-8-yl)ethyl)amino)-N-(methylsulfonyl) picolinamide]
1 to 5 | < 0.25 | C[C@@H](Nc1ccc(Cl)nc1C(=O)NS(C)(=O)=O)c1cc(Cl)cc2c(=O)n(C)c(N3C[C@@H]4[C@H](C3)[C@H]4c3ccn(C)n3)nc12 [Compound 451, 6-chloro-3-(((R)-1-(6-chloro-3-methyl-2-((1R,5S,6R)-6-(1-methyl-1H-pyrazol-3-yl)-3-azabicyclo[3.1.0]hexan-3-yl)-4-oxo-3,4-dihydroquinazolin-8-yl)ethyl)amino)-N-(methylsulfonyl) picolinamide]
1 to 5 | 0.25 to 0.5 | C[C@@H](Nc1ccc(Cl)nc1C(=O)NS(C)(=O)=O)c1cc(C(F)(F)F)cc2c(=O)n(C)c(N3C[C@@H]4[C@H](C3)[C@H]4c3ccn(C)n3)nc12 [Compound 452, 6-chloro-3-(((R)-1-(3-methyl-2-((1R,5S,6R)-6-(1-methyl-1H-pyrazol-3-yl)-3-azabicyclo[3.1.0]hexan-3-yl)-4-oxo-6-(trifluoromethyl)-3,4-dihydroquinazolin-8-yl)ethyl)amino)-N-(methylsulfonyl) picolinamide]
≥ 5 | < 0.25 | C[C@@H](Nc1ccc(Cl)nc1C(=O)NS(C)(=O)=O)c1cc(C(F)(F)F)cc2c(=O)n(C)c(N3CCC(c4nn(C)cc4F)CC3)nc12 [Compound 453, (R)-6-chloro-3-((1-(2-(4-(4-fluoro-1-methyl-1H-pyrazol-3-yl)piperidin-1-yl)-3-methyl-4-oxo-6-(trifluoromethyl)-3,4-dihydroquinazolin-8-yl)ethyl)amino)-N-(methylsulfonyl) picolinamide]
1 to 5 | < 0.25 | Cc1cc([C@@H](C)Nc2ccc(Cl)nc2C(=O)NS(C)(=O)=O)c2nc(N3C[C@@H]4[C@H](C3)[C@H]4c3n[nH]cc3F)n(C)c(=O)c2c1 [Compound 454, 6-chloro-3-(((R)-1-(2-((1R,5S,6R)-6-(4-fluoro-1H-pyrazol-3-yl)-3-azabicyclo[3.1.0]hexan-3-yl)-3,6-dimethyl-4-oxo-3,4-dihydroquinazolin-8-yl)ethyl)amino)-N-(methylsulfonyl) picolinamide]
1 to 5 | < 0.25 | Cc1cc([C@@H](C)Nc2ccc(Cl)nc2C(=O)NS(C)(=O)=O)c2nc(N3CCC(c4c(F)cnn4C4CC4)CC3)n(C)c(=O)c2c1 [Compound 455, (R)-6-chloro-3-((1-(2-(4-(1-cyclopropyl-4-fluoro-1H-pyrazol-5-yl)piperidin-1-yl)-3,6-dimethyl-4-oxo-3,4-dihydroquinazolin-8-yl)ethyl)amino)-N-(methylsulfonyl) picolinamide]
≥ 5 | < 0.25 | [2H]C([2H])([2H])n1cc(F)c(C2CCN(c3nc4c([C@@H](C)Nc5ccc(Cl)nc5C(=O)NS(C)(=O)=O)cc(C)cc4c(=O)n3C)CC2)n1 [Compound 456, (R)-6-chloro-3-((1-(2-(4-(4-fluoro-1-(methyl-d3)-1H-pyrazol-3-yl)piperidin-1-yl)-3,6-dimethyl-4-oxo-3,4-dihydroquinazolin-8-yl)ethyl)amino)-N-(methylsulfonyl) picolinamide]
≥ 5 | 0.5 to 1 | [2H]C([2H])([2H])n1ncc(F)c1C1CCN(c2nc3c([C@@H](C)Nc4ccc(Cl)nc4C(=O)NS(C)(=O)=O)cc(C)cc3c(=O)n2C)CC1 [Compound 457, (R)-6-chloro-3-((1-(2-(4-(4-fluoro-1-(methyl-d3)-1H-pyrazol-5-yl)piperidin-1-yl)-3,6-dimethyl-4-oxo-3,4-dihydroquinazolin-8-yl)ethyl)amino)-N-(methylsulfonyl) picolinamide]
≥ 5 | 0.25 to 0.5 | Cc1cc([C@@H](C)Nc2ccc(Cl)nc2C(=O)NS(C)(=O)=O)c2nc(N3CCC(c4nc(C(F)(F)F)n(C)n4)CC3)n(C)c(=O)c2c1 [Compound 458, (R)-6-chloro-3-((1-(3,6-dimethyl-2-(4-(1-methyl-5-(trifluoromethyl)-1H-1,2,4-triazol-3-yl)piperidin-1-yl)-4-oxo-3,4-dihydroquinazolin-8-yl)ethyl)amino)-N-(methylsulfonyl) picolinamide]
≥ 5 | < 0.25 | Cc1cc([C@@H](C)Nc2ccc(Cl)nc2C(=O)NS(C)(=O)=O)c2nc(N3CCC(c4nc(C)n(C)n4)CC3)n(C)c(=O)c2c1 [Compound 459, (R)-6-chloro-3-((1-(2-(4-(1,5-dimethyl-1H-1,2,4-triazol-3-yl)piperidin-1-yl)-3,6-dimethyl-4-oxo-3,4-dihydroquinazolin-8-yl)ethyl)amino)-N-(methylsulfonyl) picolinamide]
1 to 5 | < 0.25 | Cc1cc([C@@H](C)Nc2ccc(Cl)nc2C(=O)NS(C)(=O)=O)c2nc(N3C[C@@H]4[C@H](C3)[C@H]4c3ccnn3C3CC3)n(C)c(=O)c2c1 [Compound 460, 6-chloro-3-(((R)-1-(2-((1R,5S,6R)-6-(1-cyclopropyl-1H-pyrazol-5-yl)-3-azabicyclo[3.1.0]hexan-3-yl)-3,6-dimethyl-4-oxo-3,4-dihydroquinazolin-8-yl)ethyl)amino)-N-(methylsulfonyl) picolinamide]
1 to 5 | < 0.25 | COc1c([C@H]2[C@@H]3CN(c4nc5c([C@@H](C)Nc6ccc(Cl)nc6C(=O)NS(C)(=O)=O)cc(C)cc5c(=O)n4C)C[C@@H]32)cnn1C [Compound 461, 6-chloro-3-(((R)-1-(2-((1R,5S,6S)-6-(5-methoxy-1-methyl-1H-pyrazol-4-yl)-3-azabicyclo[3.1.0]hexan-3-yl)-3,6-dimethyl-4-oxo-3,4-dihydroquinazolin-8-yl)ethyl)amino)-N-(methylsulfonyl) picolinamide]
